Our source for the T/C values is ChEMBL document CHEMBL1151369, “Antitumor agents. 39. Bruceantinoside-A and -B, novel antileukemic quassinoid glucosides from Brucea antidysenterica” (1981).

Common to all, as to assay type: functional
The test system of test [1] is P388. The test is described as follows: In vivo antileukemic activity against mouse P388 cells at 0.5 mg/kg relative to control.
Test [2] has as its system P388. Kind of test: In vivo antileukemic activity against mouse P388 cells at 1 mg/kg relative to control.
Test [3] relates to P388. Kind of test: In vivo antileukemic activity against mouse P388 cells at 6 mg/kg relative to control.
Test [4] deals with P388. The test is described as follows: In vivo antileukemic activity against mouse P388 cells at 10 mg/kg relative to control.
In test [5] the test system is P388. The test is described as follows: In vivo antileukemic activity against mouse P388 cells at 20 mg/kg relative to control.

Usually T/C stands for the ratio of treated to control. Turning to `COC(=O)[C@]12OC[C@@]34[C@H](C[C@H]5[C@H](C)C(=O)C(O[C@@H]6O[C@H](CO)[C@@H](O)[C@H](O)[C@H]6O)=C[C@]5(C)[C@H]3[C@@H](O)[C@@H]1O)OC(=O)[C@H](OC(=O)/C=C(\C)C(C)C)[C@@H]24` [BRUCEANTINOSIDE A], the T/C with P388 [1] came to 110%; in the test on P388 [2] it was 106%; in the test on P388 [3], 118%; with P388 [4] it was 152%; in the test with P388 [5], 172%.

For the compound `COC(=O)[C@]12OC[C@@]34[C@H](C[C@H]5C(C)=C(O[C@@H]6O[C@H](CO)[C@@H](O)[C@H](O)[C@H]6O)C(=O)C[C@]5(C)[C@H]3[C@@H](O)[C@@H]1O)OC(=O)[C@H](OC(=O)/C=C(\C)C(C)C)[C@@H]24` [BRUCEANTINOSIDE B], the T/C in the test on P388 [4] is given as 132%; with P388 [5], 160%.
